These results are taken from PMC6511062, “Preclinical candidate for the treatment of visceral leishmaniasis that acts through proteasome inhibition” (Proceedings of the National Academy of Sciences of the …, 2019).

The subject of series [1] is Salmonella typhimurium TA1535, TA1537, TA98, TA100 and Escherichia coli WP2uvrA(pKM101). Description: Bacterial mutation screening assay (Ames test), overall outcome. Format: cell-based. The conditions noted are these: presence and absence of S9-mix. As for the experimental part: i. Bacterial Mutation (Ames) Assay
Compound 6 was tested in a bacterial mutation screening assay (Ames test) with Salmonella typhimurium TA1535, TA1537, TA98, TA100 and Escherichia coli WP2uvrA(pKM101) in the presence and absence of an exogenous mammalian oxidative metabolism system (S9-mix). The maximum concentration tested and […]
Compound 6a was tested in a bacterial mutation screening assay (Ames test) with […]
Compound 7a was tested in a bacterial mutation screening assay (Ames test) with […]
The bacterial mutation screening assay was a plate incorporation test carried out as previously described15 and according to current methodology. […]
In general terms: The Ames test uses bacterial strains that need an amino acid and regain growth without it when mutated back.

Series [2] can be described thus: Pharmacokinetics in male Sprague Dawley rats. The conditions noted are these: rat. Format: in vivo. As for the experimental part:
Male Sprague Dawley rats (n=3) were dosed either intravenously at a target dose of 3 mg/kg or orally at a target dose of 10, 30, 100 and 300 mg/kg. Following discrete intravenous tail vein dosing from a solution of 5% DMSO/20% kleptose in saline, serial blood samples (~10 µl) were taken via lateral tail vein at 0.01, 0.05, 0.08, 0.25, 0.5, 1, 2, 4, 6, 8 and 24 h post dose and 1/9 diluted with miliQ water, frozen on dry ice, then stored at approximately –20 °C or below until analysis.
Following discrete oral gavage dosing from a suspension of 1% methyl cellulose at target doses of 10, 30, 100 and 300 mg/kg, respectively, serial blood samples (10 µl) were taken via lateral tail vein at 0.08, 0.25, 0.5, 0.75, 1, 2, 4, 6, 8 and 24 h post dose and 1/9 diluted with miliQ water, frozen on dry ice, then stored at approximately –20°C […]
Samples were analyzed for parent compound using a method based on protein precipitation followed by UPLC-MS/MS.
Pharmacokinetic parameters, namely clearance (CL), volume of distribution at steady state (Vss) and bioavailability (F%), were estimated using Phoenix, WinNonLin 6.3.
Data analysis and calculation of pharmacokinetic parameters was performed using Phoenix, WinNonLin Version 6.3.
Following the intravenous administration, the whole blood clearance was calculated by determining the dose administered to each animal and dividing by the AUC0-∞ . The estimate of the volume of distribution at steady state (VSS) was calculated as MRT*CL, where MRT is the mean residence time, calculated by AUMC0-∞ /AUC0-∞.
For both intravenous and oral administration, the systemic exposures were determined by calculating the area under the blood concentration time curve (AUC) from the start of dosing to the last observed quantifiable concentration (AUC0-t) by using the linear up-log down trapezoidal rule. The slope of the terminal elimination phase was estimated by linear regression of the terminal data points (minimum 3 points) from a natural log concentration versus time plot of the data. The half-life (t1/2) of the terminal elimination phase was calculated as t1/2 = 0.693/λ. […]

For series [3], the target named is chymotrypsin-like activity of the L. donovani proteasome (Leishmania donovani, UniProt A0A3S7XA80+A0ACM8QMP6). Description: biochemical.
Method: (§1) An in vitro assay was developed that enabled the chymotrypsin-like activity and additional proteolytic activities associated with the proteasome to be directly monitored within proteasome-enriched parasite cell lysates. Likewise, human proteasome from two sources (i.e., commercially pure 26S and enriched proteasome fractions from THP-1 lysates) was tested using the same biochemical assays.
(§2) Proteasome enrichment by ultracentrifugation
(§3) The protocol described by Kisselev et al.34 was adapted to enrich the proteasomes present in L. donovani and THP1 crude extracts. L. donovani or THP1 cells were resuspended in sucrose buffer (50 mM Tris buffer pH 7.5, 5 mM Magnesium chloride, 1 mM EDTA, 50 mM NaCl, 250 mM sucrose, 2 mM ATP, 1 mM DTT) and lysed by nitrogen cavitation for 15 min (110 bars of 1500 psi). Lysates were centrifuged at 20,000g for 30 min at 4 °C and supernatants containing soluble protein were subjected to an ultracentrifugation step at 300,000g for 2h at 4 °C. The resulting proteasome-containing pellets were resuspended in sucrose buffer and left on ice for 30 min to complete solubilization. Samples were centrifuged for 10 min at 20,000 g to remove insoluble material. Proteins contained in supernatant (proteasome enriched fraction) were measured by Bradford.
Series [4] has as its target chymotrypsin-like activity of the L. donovani proteasome (Leishmania donovani, UniProt A0A3S7XA80+A0ACM8QMP6, G197C/T30A). The series is described as follows: biochemical.
Method: as §1, §2, §3
Series [5] has as its system trypsin activity of the L. donovani proteasome. The series is described as follows: Proteasome activity assay, trypsin-like, L. donovani. Format: biochemical, Leishmania donovani. Here is the method:
k. Proteasome activity assays
Compounds were dispensed into black 384-well assay plates (Greiner) by acoustic dispensing (LabCyte ECHO). For potency determinations, eleven-point, one in three dilution curves were generated, with a top concentration of 100 µM. Three proteasome activities were measured using a commercially available indirect enzyme-based luminescent assay kit (Promega) with Suc-LLVY-aminoluciferin, Z-LRR-aminoluciferin and Z-nLPnLD-aminoluciferin used as substrates for chymotrypsin-like, trypsin-like and caspase-like activities, respectively. In addition to proteasome samples: L. donovani and THP1-enriched proteasomes, commercially available human purified 26S proteasome (Boston Biochem) was also assessed. Proteasome final assay concentration were 0.025 mg/ml for L. donovani and THP1-enriched proteasomes and 1 nM for human purified 26S proteasome. Proteasome solution was added to the plates containing the compounds one hour before adding the proteasome substrate solution.
Substrate solution was then added and after 30 min of incubation luminescent signal was measured in an Envision reader (PerkinElmer).
Cultures of L. donovani axenic amastigotes were diluted to either 8 x 106 or 8 x 107 […]
value. […]
value) were used as negative and positive controls, respectively. […] Protein concentrations were determined by standard Bradford assays and Laemmli sample buffer was added to samples. […]

The test system of series [6] is Leishmania tarentolae. The series is described as follows: Potency against L. tarentolae. Format: cell-based. From the text: The potency of 8 against the nonpathogenic Leishmania spp. […] Apo (3.3 Å) and 8-liganded (2.8 Å) (Fig. 5A) L. tarentolae 20S proteasome structures were obtained using single-particle cryo-EM (SI Appendix, Figs. S11–S15 and Table S9).
The mark [7] stands for this setting: male, Sprague Dawley, whole blood, 3 mg/kg iv bolus.

Chain of chymotrypsin-like activity of the L. donovani proteasome (Leishmania donovani, UniProt A0A3S7XA80+A0ACM8QMP6) (A0ACM8QMP6 100-302): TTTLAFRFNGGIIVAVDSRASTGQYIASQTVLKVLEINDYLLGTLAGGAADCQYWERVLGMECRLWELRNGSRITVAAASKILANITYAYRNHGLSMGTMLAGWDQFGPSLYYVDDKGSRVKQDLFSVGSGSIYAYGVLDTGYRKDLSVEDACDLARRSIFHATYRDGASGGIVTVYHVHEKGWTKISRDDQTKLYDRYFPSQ
Chain of chymotrypsin-like activity of the L. donovani proteasome (Leishmania donovani, UniProt A0A3S7XA80+A0ACM8QMP6) (A0A3S7XA80 1-206): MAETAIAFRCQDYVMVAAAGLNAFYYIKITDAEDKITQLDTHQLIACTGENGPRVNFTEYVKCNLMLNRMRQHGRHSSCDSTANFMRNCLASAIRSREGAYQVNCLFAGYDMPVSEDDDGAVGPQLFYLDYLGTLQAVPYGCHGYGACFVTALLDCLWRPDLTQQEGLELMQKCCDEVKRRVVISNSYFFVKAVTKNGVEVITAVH
Chain of chymotrypsin-like activity of the L. donovani proteasome (Leishmania donovani, UniProt A0A3S7XA80+A0ACM8QMP6, G197C/T30A) (A0ACM8QMP6 entry or part of it, stated change not applied): as the sequence (A0ACM8QMP6 100-302) above
Chain of chymotrypsin-like activity of the L. donovani proteasome (Leishmania donovani, UniProt A0A3S7XA80+A0ACM8QMP6, G197C/T30A) (A0A3S7XA80 whole entry, stated change not applied): as the sequence (A0A3S7XA80 1-206) above

`O=C(Nc1ccc(F)c(-c2ccn3c(N4CCOCC4)cnc3n2)c1)N1CCCC1` [Compound 8]: the AMES result in series [1] is given as “negative”. Also, the bioavailability – broadly, dose-corrected exposure relative to a reference, in per cent – in series [2] (male, Sprague Dawley, whole blood, po, 10 mg/kg, SD male rat, 10 mg/kg po, read-out: F (oral bioavailability)) is 36%. In addition, in series [2] (setting [7]), the clearance (as a rule, the rate of elimination divided by the concentration) is 17 ± 5.2 mL/min/kg and the half-life (in general, the time in which the quantity being followed falls by half) was 42 ± 8.4 min. Further, the Vd in series [2] (male, Sprague Dawley, whole blood, 3 mg/kg iv bolus, read-out: Vss) was 1 L/kg. This compound displayed a blood clearance in series [2] of 17 mL/min per kilogram. Moreover, in series [2] (3 mg/kg iv), the “Cl (%LBF)” value was 22%. In addition, it took 160 ± 10 nM to reach half-maximal inhibition in series [3] (IC50). In addition, the half-inhibitory concentration (IC50) – broadly, the concentration that inhibits the measured activity by half – in series [4] was over 100000 nM. The “effect on trypsin activity” value in series [5] was “no effect”. Also, in series [6], the midpoint of the response, the EC50, lay at 40 nM.
